Experimental data as given in patent publication US5639899A, “Prostaglandin E1 analogues” (Taisho Pharmaceutical Co., Ltd., priority 1991, dated 1997).

Assays:
[1] = Blood Pressure Lowering Test in Anesthetized Dogs; format: in vivo, dog (male mongrel); settings: intravenous
Protocol: Male mongrel dogs, weighing 13 kg, were anesthetized by intravenous administration of 30 mg/kg of sodium pentobarbital. A cannula inserted into the left femoral […] was attached to a blood pressure transducer to measure blood pressure. A solution of the test drug in ethanol, if necessary, was diluted with ethanol. 10 μl of the solution was administered through the vein via a cannula inserted into the left anterior limb vein. The blood pressure lowering rate by the test drug was calculated by the following formula: [formula]

[2] = test system: Guinea-pig Blood Platelet; assay: Guinea-pig Blood Platelet Aggregation Inhibition Test (oral administration, aggregation measured in PRP); format: in vivo, guinea-pig (male Hartley strain); settings: 50 μg/kg
Description: The effects of the present invention are illustrated in more detail by the following experiments. Experiment 1 [Guinea-pig Blood Platelet Aggregation Inhibition Test]
194, page 927 (1962)]. […] [formula]
In the table are recited data of the compound obtained by converting the triple bond between the 13- and 14-positions of Compound 9 of Example 23 into a double bond as a comparative compound (limaprost) [Tsuboi et al, Arch. Intern. Pharmacodyn. Ther., vol. 247, page 89 (1980)].

Rabbit Blood Platelet = Rabbit Blood Platelet Aggregation Inhibition Test; format: cell-based, rabbit (New Zealand white strain); settings: Oryctolagus cuniculus, rabbit PRP, ADP 5 μM, 37° C., mean value
Protocol: Groups of four New Zealand white strain rabbits, each weighing 2.5 to 4.0 kg, were used for the test. […] The collected blood was Centrifuged at 1100 rpm for 15 minutes to give platelet rich plasma (PRP) as a supernatant. […] 194, page 927 (1962)]. That is, 1 μl of the test drug dissolved in ethanol at the desired concentration was added to 275 μl of PRP, and the mixture was stirred at 1000 rpm at 37° C.
The aggregation inhibition rate was calculated on the basis of the aggregation obtained by using ethanol in place of the test drug solution, and the aggregation inhibition activity was expressed as IC50 value which was determined from the dose response curve.
Results are shown in Table 2 wherein the compound number is as defined in the examples described hereinafter, and the IC50 value is expressed as the mean value.

CCCC[C@H](C)C[C@H](O)C#C[C@H]1[C@H](O)CC(=O)[C@@H]1CCCC/C=C/C(=O)OC [Compound 1, (2E,17S)-17,20-Dimethyl-2,3,13,14-tetradehydro-PGE1 Methyl Ester]
blood pressure lowering rate ([1]; 0.03 μg/kg): 10.1% | Aggregation Inhibition Rate, ADP Aggregation, 2 hours after administration ([2]; ADP 3 μM): 9.8% | Aggregation Inhibition Rate, Collagen Aggregation, 2 hours after administration ([2]; collagen 3 μg/ml): 25.7%

CCC#CCC(C)[C@H](O)C#C[C@H]1[C@H](O)CC(=O)[C@@H]1CCCC/C=C/C(=O)OC (stereo partly drawn) [Compound 2, (2E,16RS)-16,20-Dimethyl-2,3,13,14,18,18,19,19-octadehydro-PGE1 Methyl Ester]
IC50 (Rabbit Blood Platelet): 1.7 nM

COC(=O)/C=C/CCCC[C@H]1C(=O)C[C@@H](O)[C@@H]1C#C[C@@H](O)C1CCCCC1 [Compound 3, (2E)-16,17,18,19,20-Pentanor-15-cyclohexyl-2,3,13,14-tetradehydro-PGE1Methyl Ester]
blood pressure lowering rate ([1]; 0.03 μg/kg): 11.5% | IC50 (Rabbit Blood Platelet): 6 nM

CCCC[C@H](C)C[C@H](O)C#C[C@H]1[C@H](O)CC(=O)[C@@H]1CCCCC#CC(=O)OC [Compound 4, (71S)-17,20-Dimethyl-2,2,3,3,13,14-hexadehydro-PGE1 Methyl Ester]
IC50 (Rabbit Blood Platelet): 3 nM

CCCC[C@@H](C)C[C@H](O)C#C[C@H]1[C@H](O)CC(=O)[C@@H]1CCCC/C=C/C(=O)OC [Compound 5, (2E,17R)-17,20-Dimethyl-2,3,13,14-tetradehydro-PGE1 Methyl Ester]
IC50 (Rabbit Blood Platelet): 1.4 nM | Aggregation Inhibition Rate, ADP Aggregation, 2 hours after administration ([2]; ADP 3 μM): 25.9% | Aggregation Inhibition Rate, Collagen Aggregation, 2 hours after administration ([2]; collagen 3 μg/ml): 1.6%

CCCCOC(=O)C#CCCCC[C@H]1C(=O)C[C@@H](O)[C@@H]1C#C[C@@H](O)C[C@@H](C)CCCC [Compound 6, (17S)-17,20-Dimethyl-2,2,3,3,13,14-hexadehydro-PGE1 n-butyl Ester]
Aggregation Inhibition Rate, ADP Aggregation, 2 hours after administration ([2]; ADP 3 μM): 22.8% | Aggregation Inhibition Rate, Collagen Aggregation, 2 hours after administration ([2]; collagen 3 μg/ml): 58.2%

COC(=O)C#CCCCC[C@H]1C(=O)C[C@@H](O)[C@@H]1C#C[C@@H](O)CC(C)CCC=C(C)C (stereo partly drawn) [Compound 7, (17RS)-20-Nor-17-methyl-19-(2'-methylprop-1'-enyl)-2,2,3,3,13,14-hexadehydro-PGE1 Methyl Ester]
IC50 (Rabbit Blood Platelet): 1.1 nM

CCCC[C@@H](C)C[C@H](O)C#C[C@H]1[C@H](O)CC(=O)[C@@H]1CCCCC#CC(=O)OC [Compound 8, (17R)-17,20-Dimethyl-2,2,3,3,13,14-hexadehydro-PGE1 Methyl Ester]
IC50 (Rabbit Blood Platelet): 0.74 nM

CCCC[C@H](C)C[C@H](O)C#C[C@H]1[C@H](O)CC(=O)[C@@H]1CCCC/C=C/C(=O)O [Compound 9, (2E,17S)-17,20-Dimethyl-2,3,13,14-tetradehydro-PGE1]
blood pressure lowering rate ([1]; 0.03 μg/kg): 23.7% | IC50 (Rabbit Blood Platelet): 2.6 nM | Aggregation Inhibition Rate, ADP Aggregation, 2 hours after administration ([2]; ADP 3 μM): 26.4% | Aggregation Inhibition Rate, Collagen Aggregation, 2 hours after administration ([2]; collagen 3 μg/ml): 28.4%

CCC#CCC(C)[C@H](O)C#C[C@H]1[C@H](O)CC(=O)[C@@H]1CCCC/C=C/C(=O)O (stereo partly drawn) [Compound 10, (2E,16RS)-16,20-Dimethyl-2,3,13,14,18,18,19,19-octadehydro-PGE1]
IC50 (Rabbit Blood Platelet): 1.1 nM

O=C(O)/C=C/CCCC[C@H]1C(=O)C[C@@H](O)[C@@H]1C#C[C@@H](O)C1CCCCC1 [Compound 11, (2E)-16,17,18,19,20-Pentanor-15-cyclohexyl-2,3,13,14-tetradehydro-PGE1]
IC50 (Rabbit Blood Platelet): 6.3 nM

CCCC[C@H](C)C[C@H](O)C#C[C@H]1[C@H](O)CC(=O)[C@@H]1CCCCC#CC(=O)O [Compound 12, (17S)-17,20-Dimethyl-2,2,3,3,13,14-hexadehydro-PGE1]
IC50 (Rabbit Blood Platelet): 5.1 nM

CCCCCC(C)C[C@H](O)C#C[C@H]1[C@H](O)CC(=O)[C@@H]1CCCC/C=C/C(=O)O (stereo partly drawn) [Compound 13, (2E,17RS)-17-Methyl-20-ethyl-2,3,13,14-tetradehydro-PGE1]
IC50 (Rabbit Blood Platelet): 2.7 nM

CCCC[C@@H](C)C[C@H](O)C#C[C@H]1[C@H](O)CC(=O)[C@@H]1CCCC/C=C/C(=O)O [Compound 14, (2E,17R)-17,20-Dimethyl-2,3,13,14-tetradehydro-PGE1]
IC50 (Rabbit Blood Platelet): 1.3 nM | Aggregation Inhibition Rate, ADP Aggregation, 2 hours after administration ([2]; ADP 3 μM): 52.5% | Aggregation Inhibition Rate, Collagen Aggregation, 2 hours after administration ([2]; collagen 3 μg/ml): 100.0% | Aggregation Inhibition Rate, ADP Aggregation, 8 hours after administration ([2]; 8 hours after administration, ADP 3 μM): 31.8% | Aggregation Inhibition Rate, Collagen Aggregation, 8 hours after administration ([2]; 8 hours after administration, collagen 3 μg/ml): 61.0%

CCCC[C@H](C)C[C@H](O)C#C[C@H]1[C@H](O)CC(=O)[C@@H]1CCCCCC/C=C/C(=O)O [Compound 15, (2E,17S)-2a,2b-Dihomo-17,20-dimethyl-2,2a,13,14-tetradehydro-PGE1]
IC50 (Rabbit Blood Platelet): 5.1 nM

CCCC[C@@H](C)C[C@H](O)C#C[C@H]1[C@H](O)CC(=O)[C@@H]1CCCCC#CC(=O)O [Compound 16, (17R)-17,20-Dimethyl-2,2,3,3,13,14-hexadehydro-PGE1]
IC50 (Rabbit Blood Platelet): 0.37 nM

CCCCC[C@H](O)/C=C/[C@H]1[C@H](O)CC(=O)[C@@H]1CCCCCCC(=O)O [PGE1]
blood pressure lowering rate ([1]; 1 μg/kg): 13.9% | blood pressure lowering rate ([1]; 3 μg/kg): 23.7% | IC50 (Rabbit Blood Platelet): 26 nM

CCCC[C@H](C)C[C@H](O)/C=C/[C@H]1[C@H](O)CC(=O)[C@@H]1CCCC/C=C/C(=O)O [limaprost, reference compound]
blood pressure lowering rate ([1]; 0.5 μg/kg): 13.9% | blood pressure lowering rate ([1]; 1 μg/kg): 23.8% | IC50 (Rabbit Blood Platelet): 6.3 nM | Aggregation Inhibition Rate, ADP Aggregation, 2 hours after administration ([2]; ADP 3 μM): 3.4% | Aggregation Inhibition Rate, Collagen Aggregation, 2 hours after administration ([2]; collagen 3 μg/ml): 16.2%
